Laboratory results from patent US11008290B2, “Halogenated quinoline derivatives as antimicrobial agents” (University of Florida Research Foundation, Incorporated, priority 2015, dated 2021).
Converted amounts (≈) assume the structure as drawn. “And” between values parts separate entries of the source, which are not always exact repeats. Identical values can stand only once. Like-named read-outs stand apart in the source and are kept apart here. Marks after values point to notes of the source that are not given here.

How the values were obtained:
[1] = test system: S. aureus; experiment: MIC, antibacterial profile of broxyquinoline and HQ-1 (FIG. 2A); type: cell-based; details: Staphylococcus aureus
[2] = test system: S. epidermidis; experiment: as above; type: cell-based; details: Staphylococcus epidermidis
[3] = test system: A. baumannii; experiment: as above; type: cell-based, Acinetobacter baumannii
[4] = test system: methicillin-resistant Staphylococcus epidermidis (MRSE; ATCC 35984); experiment: Minimum inhibitory concentration (MIC) susceptibility assay, broth microdilution; type: cell-based; details: for MIC: Table 2, ATCC 35984, read-out: MRSE MIC
Experimental: (§1) The minimum inhibitory concentration (MIC) for each compound was determined by the broth microdilution method as recommended by the Clinical and Laboratory Standards Institute (CLSI). In a 96-well plate, eleven two-fold serial dilutions of each compound were made in a final volume of 100 μL Luria Broth. Each well was inoculated with ˜10^5 bacterial cells at the initial time of incubation, prepared from a fresh log phase culture (OD600 of 0.5 to 1.0 depending on bacterial strain). […] The concentration range tested for each compound during this study was 0.10 to 100 μM. DMSO served as the vehicle and negative control in each microdilution MIC assay. DMSO was serially diluted with a top concentration of 1% v/v. Bacterial strains used: methicillin-resistant Staphylococcus aureus-2 (MRSA-2; clinical isolate from Shands Hospital in Gainesville, Fla.), methicillin-resistant Staphylococcus epidermidis (MRSE; ATCC 35984), vancomycin-resistant Enterococcus faecium (VRE, ATCC 700221).

[5] = test system: vancomycin-resistant Enterococcus faecium (VRE, ATCC 700221); experiment: as above; type: cell-based
Experimental: as §1

[6] = test system: MRSA-2; experiment: Mechanistic investigations with metal(II)-cations (MIC assay with 200 μM metal salt); type: cell-based, Staphylococcus aureus; details: MRSA-2
Experimental: as §1

[7] = test system: MRSA BAA-1707; experiment: Calgary Biofilm Device (CBD) MBC/MBEC determination; type: cell-based, Staphylococcus aureus; details: Table 4, CBD
Experimental: (§2) Biofilm eradication experiments were performed using the Calgary Biofilm Device to determine MBC/MBEC values for various compounds of interest (Innovotech, product code: 19111). The Calgary device (96-well plate with lid containing 96 total pegs to establish biofilms; 1 peg/well) was inoculated with 125 μL of a mid-log phase culture diluted 1,000-fold in tryptic soy broth with 0.5% glucose (TSBG) to establish bacterial biofilms after incubation at 37° C. for 24 hours. The lid of the Calgary device was then removed, washed and transferred to another 96-well plate containing 2-fold serial dilutions of the test compounds (the “challenge plate”). The total volume of media with compound in each well in the challenge plate was 150 μL. The Calgary device was then incubated at 37° C. for 24 hours. The lid was then removed from the challenge plate and MBC/MBEC values were determined using different final assays. […] The MBC values were determined as the concentration giving a lack of visible bacterial growth (e.g., turbidity). For determination of MBEC values, the Calgary device lid (with attached pegs/treated biofilms) was transferred to a new 96-well plate containing 150 μL of fresh TSBG media in each well and incubated for 24 hours at 37° C. to allow viable biofilms to grow and disperse resulting in turbidity after the incubation period. […] In select experiments, treated pegs from the Calgary device were removed from lead biofilm eradicators after final incubation, sonicated for 30 minutes in PBS and plated out to determine biofilm cell killing (e.g., colony forming unit per milliliter, CFU/mL).

[8] = test system: MRSA-2 planktonic cells and biofilms; experiment: as above; type: cell-based, Staphylococcus aureus; details: CBD; for MBC: planktonic killing, first value of MBC/MBEC cell
Experimental: as §2

[9] = test system: MRSE (ATCC 35984) planktonic cells and biofilms; experiment: as above; type: cell-based, Staphylococcus epidermidis; details: CBD; for MBC: planktonic killing, first value of cell
Experimental: as §2

[10] = test system: VRE (ATCC 700221) planktonic cells and biofilms; experiment: as above; type: cell-based, Enterococcus faecium; details: CBD; for MBC: planktonic killing, first value of cell
Experimental: as §2

[11] = test system: human red blood cells; experiment: Hemolysis assay; type: cell-based
Experimental: Freshly drawn human red blood cells (hRBC with ethylenediaminetetraacetic acid (EDTA) as an anticoagulant) were washed with Tris-buffered saline (0.01M Tris-base, 0.155M sodium chloride (NaCl), pH 7.2) and centrifuged for 5 minutes at 3500 rpm. The washing was repeated three times with the buffer. In 96-well plate, the test compounds were added to the buffer. […] The plate was then incubated for 1 hour at 37° C. After incubation, the plate is centrifuged for 5 minutes at 3500 rpm. Then 80 μL of the supernatant were transferred to another 96-well plate and the Optical Density (OD) was read at 405 nm. […] The percent of hemolysis was calculated as (OD405 of the compound-OD405 DMSO)/(OD405 Triton X-OD405 buffer).

[12] = test system: methicillin-resistant Staphylococcus aureus-2 (MRSA-2; clinical isolate); experiment: Minimum inhibitory concentration (MIC) susceptibility assay, broth microdilution; type: cell-based; details: Staphylococcus, MRSA
Experimental: as §1

[13] = test system: MRSA-2, MRSE 35984, VRE 700221; experiment: MIC assays, range stated over the three drug-resistant pathogens; type: cell-based; details: range over MRSA-2, MRSE, read-out: MIC against these drug-resistant pathogens
Experimental: as §1

[14] = Table 2, biofilm eradication, second value of cell

For Oc1c(Br)cc(Br)c2cccnc12 [Broxyquinoline], the MIC [1] was 12.5 µM and 4 µg/mL, the MIC [2] was 12.5 µM and 4 µg/mL and the MIC ([3]; Acinetobacter baumannii, read-out: MIC) was 12.5 µM and 4 µg/mL.
With Cc1ccc2c(Br)cc(Br)c(O)c2n1 [HQ-1, reference compound] the MIC [4] was 0.39 µM (≈ 0.124 µg/mL), the “MRSE MIC” value ([4]; Table 3) was 0.30^a μM and the “VRE MIC” value ([5]; Table 3) was 2.35^a μM. For the same compound, the “MIC w/Fe^2+” value ([6]; 200 μM ammonium iron (II) sulfate hexahydrate) was >100^b μM and >100^c μM, the “MIC w/Cu^2+” value ([6]; 200 μM copper (II) sulfate) was 25^b μM and 25^c μM and the MIC ([6]; 200 μM magnesium (II) sulfate, read-out: MIC w/Mg^2+) was 1.56 µM. The “MIC w/Zn^2+” value ([6]; 200 μM zinc (II) chloride) was 0.15^a,b μM and 0.1^a,c μM, the “MRSA BAA-1707 MBEC” value ([7]; biofilm eradication, second value of cell) was 46.9 µM and the MBC ([7]; planktonic killing, first value of cell, read-out: MRSA BAA-1707 MBC) was 62.5 µM (≈ 19.8 µg/mL). The “MRSA-2 Clinical Isolate MBEC” value ([8]; Table 2, biofilm eradication, second value of MBC/MBEC cell) was 188 µM, the MBC ([8]; Table 2, read-out: MRSA-2 Clinical Isolate MBC) was 23.5 µM (≈ 7.45 µg/mL) and the “MRSA-2 MBEC” value ([8]; Table 3, biofilm eradication, second value of MBC/MBEC cell) was 188 µM. For the same compound, the MBC ([8]; Table 3, read-out: MRSA-2 MBC) was 23.5 µM (≈ 7.45 µg/mL), the “MRSE ATCC 35984 MBEC” value [9, 14] was 93.8 µM and the MBC ([9]; Table 2, read-out: MRSE ATCC 35984 MBC) was 31.3 µM (≈ 9.92 µg/mL). The “MRSE MBEC” value ([9]; Table 3, biofilm eradication, second value of cell) was 93.8 µM, the MBC ([9]; Table 3, read-out: MRSE MBC) was 31.3 µM (≈ 9.92 µg/mL) and the “VRE ATCC 700221 MBEC” value [10, 14] was 1.5 µM. The MBC ([10]; Table 2, read-out: VRE ATCC 700221 MBC) was 2.0 µM (≈ 0.634 µg/mL), the “VRE MBEC” value ([10]; Table 3, biofilm eradication, second value of cell, footnote c = lowest concentration tested) was 1.5 µM and the MBC ([10]; Table 3, footnote c = lowest concentration tested, read-out: VRE MBC) was 2.0 µM (≈ 0.634 µg/mL). The “% Haemolysis at 200 μM” value ([11]; Table 2, human red blood cells, 1 hour at 37° C.) was at most 1%, the “% Haemolysis at 200 μM” value ([11]; Table 3, human red blood cells) was at most 1% and the MIC [3] was 32 µg/mL. It also gave an MIC ([3]; read-out: MIC) of 100 µM.
Compound Cc1c(Br)cc(NCc2ccc3c(Br)cc(Br)c(O)c3n2)cc1Br [HQ-7] has an MIC ([12]; Table 2, 2 to 6 independent experiments, read-out: MRSA-2 MIC) of 18.8 µM (≈ 10.9 µg/mL), an MIC ([12]; read-out: MIC) of over 100 µM and an MIC ([4]; Staphylococcus epidermidis) of 9.38 µM (≈ 5.44 µg/mL). It also gave an MIC ([5]; Table 2, ATCC 700221, read-out: VRE MIC) of 75 µM (≈ 43.5 µg/mL), an MIC ([6]; Staphylococcus aureus, 200 μM ammonium iron (II) sulfate hexahydrate, read-out: MIC w/Fe^2+) of over 100 µM and an MIC ([6]; Staphylococcus aureus, 200 μM copper (II) sulfate, read-out: MIC w/Cu^2+) of over 100 µM. For the same compound, the MIC ([6]; Staphylococcus aureus, 200 μM magnesium (II) sulfate, read-out: MIC w/Mg^2+) was over 100 µM, the MIC ([6]; Staphylococcus aureus, 200 μM zinc (II) chloride, read-out: MIC w/Zn^2+) was over 100 µM and the MBC ([8]; Staphylococcus aureus, MRSA, Table 2, read-out: MRSA-2 Clinical Isolate MBC) was 500 µM (≈ 290 µg/mL). The MBC ([9]; Staphylococcus epidermidis, Table 2, read-out: MRSE ATCC 35984 MBC) was 250 µM (≈ 145 µg/mL), the MBC ([10]; Enterococcus, Table 2, read-out: VRE ATCC 700221 MBC) was 125 µM (≈ 72.5 µg/mL) and the “% Haemolysis at 200 μM” value ([11]; human, 1 h, pH 7.2) was at most 1%. It also gave an MIC [13] of 9.38 to 75 µM (≈ 5.44 to 43.5 µg/mL).
